According to PubChem BioAssay AID248 (DTP/NCI, 2004):
“And” between values parts separate entries of the source, which are not always exact repeats. Equal entries are not always repeated. Inconclusive results and toxic doses are left out.

Tested on: L1210 leukemia ip in BDF1 mice, survival T/C
Experiment: NCI In Vivo Anticancer Drug Screen. Data for tumor model L1210 Leukemia (intraperitoneal) in B6D2F1 (BDF1) mice
Details: endpoint: mean survival time, higher = longer survival
Outline: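 In this screen, tumor-bearing mice given compound are compared to those given vehicle, and their survival values are reported as a treated-to-control quotient.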

[1] = dose: 25.0 mg/kg/injection, schedule: Q01DX009 (ip), vehicle: saline
[2] = dose: 50.0 mg/kg/injection, schedule: Q01DX009 (ip), vehicle: saline
[3] = dose: 100.0 mg/kg/injection, schedule: Q04DX003 (ip), vehicle: Klucel (hydroxypropylcellulose) (HPC)
[4] = dose: 200.0 mg/kg/injection, schedule: Q04DX003 (ip), vehicle: Klucel (hydroxypropylcellulose) (HPC)
[5] = dose: 400.0 mg/kg/injection, schedule: Q04DX003 (ip), vehicle: Klucel (hydroxypropylcellulose) (HPC)
[6] = dose: 100.0 mg/kg/injection, schedule: Q01DX001 (ip), vehicle: Klucel (hydroxypropylcellulose) (HPC)
[7] = dose: 100.0 mg/kg/injection, schedule: Q01DX009 (ip), vehicle: Klucel (hydroxypropylcellulose) (HPC)
[8] = dose: 200.0 mg/kg/injection, schedule: Q01DX009 (ip), vehicle: Klucel (hydroxypropylcellulose) (HPC)
[9] = dose: 50.0 mg/kg/injection, schedule: Q04DX003 (ip), vehicle: Klucel (hydroxypropylcellulose) (HPC)
[10] = dose: 400.0 mg/kg/injection, schedule: Q01DX009 (ip), vehicle: Klucel (hydroxypropylcellulose) (HPC)
[11] = dose: 100.0 mg/kg/injection, schedule: Q04DX002 (ip), vehicle: saline
[12] = dose: 200.0 mg/kg/injection, schedule: Q04DX002 (ip), vehicle: saline
[13] = dose: 400.0 mg/kg/injection, schedule: Q04DX002 (ip), vehicle: saline
[14] = dose: 25.0 mg/kg/injection, schedule: Q01DX001 (ip), vehicle: Klucel (hydroxypropylcellulose) (HPC)
[15] = dose: 50.0 mg/kg/injection, schedule: Q01DX001 (ip), vehicle: Klucel (hydroxypropylcellulose) (HPC)

CC1(C)COC(Cc2ccccc2)=N1
T/C [1]: 98 % of control
T/C [2]: 104 % of control
T/C (dose: 50.0 mg/kg/injection, schedule: Q04DX003 (ip), vehicle: saline): 96 % of control
T/C (dose: 100.0 mg/kg/injection, schedule: Q01DX009 (ip), vehicle: saline): 102 % of control
T/C (dose: 100.0 mg/kg/injection, schedule: Q04DX003 (ip), vehicle: saline): 94 % of control
T/C (dose: 200.0 mg/kg/injection, schedule: Q01DX009 (ip), vehicle: saline): 101 % of control
T/C (dose: 200.0 mg/kg/injection, schedule: Q04DX003 (ip), vehicle: saline): 91 % of control

c1ccc(-c2nc3ccccc3s2)nc1
T/C [3]: 109 % of control
T/C [4]: 98 % of control
T/C [5]: 88 % of control

COC12C[C@]34CCCN3CC(O1)c1cc3c(cc1[C@@H]4[C@@H]2O)OCO3
T/C [1]: 105 % of control
T/C [2]: 112 % of control

CC(C)(C)c1ccc(OC(=O)Nc2ccc(O)c(C(=O)O)c2)cc1
T/C [6]: 115 % of control
T/C [7]: 94 % of control and 98 % of control
T/C (dose: 100.0 mg/kg/injection, schedule: Q04DX002 (ip), vehicle: Klucel (hydroxypropylcellulose) (HPC)): 96 % of control and 118 % of control
T/C [3]: 96 % of control
T/C [8]: 94 % of control
T/C (dose: 200.0 mg/kg/injection, schedule: Q04DX002 (ip), vehicle: Klucel (hydroxypropylcellulose) (HPC)): 92 % of control and 86 % of control
T/C [4]: 86 % of control

CCc1ccc(NC(=O)C(c2ccccc2)c2ccccc2)cc1
T/C [9]: 101 % of control
T/C [7]: 92 % of control
T/C [3]: 100 % of control
T/C [8]: 89 % of control
T/C [4]: 93 % of control
T/C [10]: 89 % of control
T/C [5]: 93 % of control

COc1cccc(NC(=S)NC2CC(C)CC(C)(C)C2)c1 (centres undefined)
T/C (dose: 100.0 mg/kg/injection, schedule: Q04DX002 (ip), vehicle: gum acacia): 95 % of control
T/C (dose: 200.0 mg/kg/injection, schedule: Q04DX002 (ip), vehicle: gum acacia): 98 % of control
T/C (dose: 400.0 mg/kg/injection, schedule: Q04DX002 (ip), vehicle: gum acacia): 95 % of control

COC(=O)C1CCC(=O)CC1
T/C [11]: 96 % of control
T/C [12]: 101 % of control
T/C [13]: 99 % of control

O=C1NC(=O)C(CSCc2ccccc2)(CSCc2ccccc2)N1
T/C (dose: 50.0 mg/kg/injection, schedule: Q01DX009 (ip), vehicle: saline with Tween-80): 94 % of control
T/C (dose: 100.0 mg/kg/injection, schedule: Q01DX009 (ip), vehicle: saline with Tween-80): 92 % of control and 102 % of control
T/C (dose: 200.0 mg/kg/injection, schedule: Q01DX009 (ip), vehicle: saline with Tween-80): 94 % of control and 97 % of control
T/C (dose: 400.0 mg/kg/injection, schedule: Q01DX009 (ip), vehicle: saline with Tween-80): 100 % of control

CC(C)COC(=O)c1ccccc1O
T/C [7]: 98 % of control
T/C [3]: 96 % of control
T/C [8]: 99 % of control
T/C [4]: 96 % of control
T/C [10]: 87 % of control
T/C [5]: 89 % of control

CCCCCCCCCCCCCCCCCC(=O)NCNC(=O)CCCCCCCCCCCCCCCCC
T/C (dose: 9.37 mg/kg/injection, schedule: Q01DX009 (ip), vehicle: saline with Tween-80): 92 % of control
T/C (dose: 18.75 mg/kg/injection, schedule: Q01DX009 (ip), vehicle: saline with Tween-80): 90 % of control
T/C (dose: 37.5 mg/kg/injection, schedule: Q01DX009 (ip), vehicle: saline with Tween-80): 86 % of control and 89 % of control
T/C (dose: 37.5 mg/kg/injection, schedule: Q04DX003 (ip), vehicle: saline with Tween-80): 89 % of control
T/C (dose: 75.0 mg/kg/injection, schedule: Q04DX003 (ip), vehicle: saline with Tween-80): 89 % of control
T/C (dose: 150.0 mg/kg/injection, schedule: Q04DX003 (ip), vehicle: saline with Tween-80): 87 % of control

O=C1OC(Cl)(C(Cl)(Cl)Cl)C(=O)OC1(Cl)C(Cl)(Cl)Cl (centres undefined)
T/C (dose: 100.0 mg/kg/injection, schedule: Q04DX003 (ip), vehicle: acetone): 98 % of control
T/C (dose: 200.0 mg/kg/injection, schedule: Q04DX003 (ip), vehicle: acetone): 98 % of control
T/C (dose: 400.0 mg/kg/injection, schedule: Q04DX003 (ip), vehicle: acetone): 96 % of control

CCCCN(C)CCNc1cc(C)nc(/N=C(\N)Nc2ccc(Cl)c(Cl)c2)n1
T/C (dose: 18.75 mg/kg/injection, schedule: Q01DX009 (ip), vehicle: Klucel (hydroxypropylcellulose) (HPC)): 103 % of control
T/C (dose: 37.5 mg/kg/injection, schedule: Q01DX009 (ip), vehicle: Klucel (hydroxypropylcellulose) (HPC)): 97 % of control

CC12CC3(O)OC(O1)C1(COC(=O)c4ccccc4)C3CC21OC1OC(CO)C(O)C(O)C1O (centres undefined)
T/C [11]: 107 % of control
T/C [12]: 107 % of control
T/C [13]: 114 % of control

C[n+]1c2ccccc2c(-c2c3ccccc3[n+](C)c3ccccc23)c2ccccc21
T/C (dose: 12.5 mg/kg/injection, schedule: Q01DX001 (ip), vehicle: Klucel (hydroxypropylcellulose) (HPC)): 102 % of control
T/C [14]: 98 % of control
T/C [15]: 98 % of control

CC1(C)N=C(N)N=C(N)N1c1cccc(OCCOc2ccc(N)cc2)c1
T/C (dose: 10.0 mg/kg/injection, schedule: Q01DX001 (ip), vehicle: saline): 94 % of control
T/C (dose: 20.0 mg/kg/injection, schedule: Q01DX001 (ip), vehicle: saline): 96 % of control
T/C (dose: 40.0 mg/kg/injection, schedule: Q01DX001 (ip), vehicle: saline): 102 % of control

CC1(C)N=C(N)N=C(N)N1c1cccc(OCCCc2ccccc2)c1
T/C [14]: 86 % of control
T/C [15]: 86 % of control
T/C [6]: 91 % of control

O=C(O)c1ccccc1Cc1cccc2c(Cl)cccc12
T/C [6]: 97 % of control
T/C (dose: 200.0 mg/kg/injection, schedule: Q01DX001 (ip), vehicle: Klucel (hydroxypropylcellulose) (HPC)): 98 % of control
T/C (dose: 400.0 mg/kg/injection, schedule: Q01DX001 (ip), vehicle: Klucel (hydroxypropylcellulose) (HPC)): 101 % of control

CCC(C(C)C)C1NC1C(C)C1CCC2C3CC=C4CC(OC(C)=O)CCC4(C)C3CCC12C (centres undefined)
T/C (dose: 100.0 mg/kg/injection, schedule: Q04DX003 (sc), vehicle: steriod suspending solution): 105 % of control
T/C (dose: 200.0 mg/kg/injection, schedule: Q04DX003 (sc), vehicle: steriod suspending solution): 103 % of control
T/C (dose: 400.0 mg/kg/injection, schedule: Q04DX003 (sc), vehicle: steriod suspending solution): 97 % of control

COP(=O)(NC(C)=O)OC
T/C (dose: 100.0 mg/kg/injection, schedule: Q04DX002 (ip), vehicle: saline with Tween-80): 108 % of control
T/C (dose: 200.0 mg/kg/injection, schedule: Q04DX002 (ip), vehicle: saline with Tween-80): 102 % of control
T/C (dose: 400.0 mg/kg/injection, schedule: Q04DX002 (ip), vehicle: saline with Tween-80): 150 % of control

Cc1cc2c(C)c3ccccc3c(C)c2c2ccccc12
T/C [9]: 98 % of control
T/C [3]: 95 % of control
T/C [4]: 104 % of control

CC(CNCCN)C[Si](C)(C)C (centres undefined)
T/C (dose: 4.0 mg/kg/injection, schedule: Q01DX015 (ip), vehicle: saline): 101 % of control
T/C (dose: 6.25 mg/kg/injection, schedule: Q04DX003 (ip), vehicle: saline sonified): 101 % of control
T/C (dose: 8.0 mg/kg/injection, schedule: Q01DX015 (ip), vehicle: saline): 96 % of control
T/C (dose: 12.5 mg/kg/injection, schedule: Q04DX003 (ip), vehicle: saline sonified): 97 % of control
T/C (dose: 16.0 mg/kg/injection, schedule: Q01DX015 (ip), vehicle: saline): 102 % of control
T/C (dose: 25.0 mg/kg/injection, schedule: Q04DX003 (ip), vehicle: saline sonified): 97 % of control
T/C (dose: 32.0 mg/kg/injection, schedule: Q01DX015 (ip), vehicle: saline): 96 % of control
